{"source": "paper PMC6482847", "about": "(Molecular microbiology, 2019)", "biological_target": "T1, FtsZAT (Agrobacterium fabrum, UniProt A9CIB1)", "T1 sequence (A9CIB1 1-583)": "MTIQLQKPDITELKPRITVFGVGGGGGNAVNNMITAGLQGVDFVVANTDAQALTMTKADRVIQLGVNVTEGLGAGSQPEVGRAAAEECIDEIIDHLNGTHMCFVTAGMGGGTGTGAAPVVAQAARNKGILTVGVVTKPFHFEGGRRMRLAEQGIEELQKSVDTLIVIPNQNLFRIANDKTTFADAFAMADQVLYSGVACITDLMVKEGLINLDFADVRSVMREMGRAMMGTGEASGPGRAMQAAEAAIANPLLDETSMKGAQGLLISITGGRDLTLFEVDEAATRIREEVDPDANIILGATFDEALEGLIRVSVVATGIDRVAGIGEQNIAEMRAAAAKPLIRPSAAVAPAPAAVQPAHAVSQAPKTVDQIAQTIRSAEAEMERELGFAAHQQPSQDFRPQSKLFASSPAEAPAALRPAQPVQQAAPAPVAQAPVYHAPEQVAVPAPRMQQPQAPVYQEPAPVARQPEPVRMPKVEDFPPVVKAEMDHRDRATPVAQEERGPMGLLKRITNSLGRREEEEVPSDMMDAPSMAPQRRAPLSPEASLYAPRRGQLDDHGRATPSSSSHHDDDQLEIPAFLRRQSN", "experiment": "GTPase assay, inorganic phosphate release", "format": "biochemical", "details": "2 mM GTP, 8 µM FtsZAT, 2.5 mM MgCl2, 50 mM HEPES-KOH pH 7.2, 50 mM KCl, 0.1 mM EDTA", "data": [{"molecule": "Nc1nc2c(ncn2[C@@H]2O[C@H](COP(=O)(O)OP(=O)(O)OP(=O)(O)O)[C@@H](O)[C@H]2O)c(=O)[nH]1", "note": "[GTP]", "values": [{"measurement": "GTPase assay, inorganic phosphate release (colorimetric)", "value": "it rapidly releases inorganic phosphate suggesting that GTP is hydrolyzed"}]}]}
